From US12376589B2, “Chryseobacterium insect inhibitory microbial compositions and methods of making and using” (priority 2021, dated 2025)
≈ marks a conversion by molar mass, not a printed value. Entries after “also recorded” stand apart in the source; their conditions may differ. Like-named read-outs stand apart in the source and are kept apart here.

Assays:
[1] = tested on: Culex quinquefasciatus larvae; experiment: whole plant or invertebrate
Text: (§1) Measuring potency of 3,3-diindolylmethane and 3-((1H-indol-2-yl)methyl)-1H-indole. 3,3′-Diindolylmethane (also called arundine, CAS number: 1968-05-4) was purchased from MILLIPORESIGMA (cat #74601) and Cayman Chemical (catalog #15927). 3-((1H-indol-2-yl)methyl)-1H-indole (CAS number: 114648-66-7) was purchased from Ambeed (catalog #A735658). Compounds were resuspended in dimethyl sulfoxide (DMSO). For collecting data to construct dose curves for 3,3-diindolylmethane and 3-((1H-indol-2-yl)methyl)-1H-indole, a series of twenty 1:2 dilutions was made to test in bioassays, establish a dose curve, and determine the LC50 value.
Culex quinquefasciatus bioassays with compounds. First or second instar Culex quinquefasciatus larvae were purchased from Benzon Research, Inc. (Carlisle, PA). Assays were performed with third instar larvae. Larvae were washed with sterile water before transfer to 24-well assay plates containing 1 mL of sterile water in each well. Each well contained 5 larvae. Compound dilutions were made in DMSO, topped with sterile NYSM broth and applied to each assay well. The final DMSO concentration was 1% in each assay well. Larvae mortality was scored for each well at 24-hour timepoints after application.

[2] = tested on: Aedes aegypti larvae; experiment: whole plant or invertebrate; conditions: for LC50: Aedes aegypti
Text: as §1
Aedes aegypti bioassays with compounds. Assays were performed using second or third instar larvae, with biological replication. Larvae were washed with sterile water before transfer to 24-well assay plates containing 1 mL of sterile water in each well. Each well contained 5 larvae. Compound dilutions were made in DMSO, topped with sterile NYSM broth and applied to each assay well. The final DMSO concentration was 1% in each assay well. Larval mortality was scored for each well at 24-hour timepoints after application.
Heat treatments. Samples were heated in 1.5-mL microfuge tubes in a standard laboratory heat block at the indicated temperature and time.
The EtOAc fraction was redissolved in MeOH and subjected to chromatographic fractionation (FIG. 11C) using preparative reversed-phase HPLC (Phenomenex Luna phenylhexyl, 21.2 mm×15 cm, 5 μm, 20 mL/min, isocratic elution with 80% H2O/MeCN for 2 min followed by gradient elution from 80% H2O/MeCN to 100% MeCN over 30 min then isocratic elution with 100% MeCN for 5 min) to yield 30 fractions. The preparative HPLC fractions (at concentrations of 200 μg/mL and 20 μg/mL) were tested against Aedes aegypti.

[3] = tested on: Trichoplusia ni (cabbage looper); conditions: for Mortality, Trichoplusia ni (cabbage looper): 7 days diet overlay, neonates, mean of three experiments (each N=16), Abbott's formula; for Mortalities (%) after 7 days of treatment (Abbott’s Correction), CL: Trichoplusia ni (cabbage looper)
Protocol: (§2) Lepidopteran bioassays. Lepidopteran bioassays were performed at Benzon Research, Inc. (Carlisle, PA). 3,3′-Diindolylmethane samples were solubilized in dimethyl sulfoxide (DMSO). Samples were then frozen and shipped to Benzon. Samples were resuspended with 9× volumes of water before application to the assay well. The final DMSO concentration in the assay well was 2%. PLU6 extract samples were prepared as a series of three 1:5 dilutions in dimethyl sulfoxide. Samples were then further diluted with fresh NYSM broth, then shipped to Benzon Research for use in a diet overlay assay. Assays were performed using neonate larvae of 14 different Lepidopteran species (Anticarsia gemmatalis (velvetbean caterpillar), Diatraea grandiosella (southwestern corn borer), Diatraea saccharalis (sugarcane borer), Ostrinia nubilalis (European corn borer), Trichoplusia ni (cabbage looper), Chrysodeixis includens (soybean looper), Spodoptera exigua (beet armyworm), Spodoptera frugiperda (fall armyworm), Spodoptera eridania (southern armyworm), Chloridia virescens (tobacco budworm), Helicoverpa zea (corn earworm), Agrotis ipsilon (black cutworm), Cydia pomonella (codling moth), Plutella xylostella (diamondback moth) with an N=16 or N=32, apart from P. xylostella, for which third instar larvae were used. A diet-surface overlay format was used, in which 500 microliters of diet was placed in each well. One hundred microliters of sample was then pipetted into each well and allowed to dry. A DMSO control was included with each set of samples. An internal Btk (Bacillus thurengiensis kurstaki) standard at a concentration of 1000 ppm was used as a positive control, and water was used as a negative control.
(§3) Experiments were conducted in which mortality of lepidopteran larvae was measured after 7 days of diet overlay treatment with 3,3′-diindolylmethane at the concentrations indicated in Table 3. Mean mortalities and standard deviations were calculated from three independent experiments (each N=16). For each experiment, mortalities were corrected using Abbott's formula (Abbott (1987) “Method of computing the effectiveness of an insecticide” J. American Mosquito Control Association 2: 302-03, incorporated herein by reference). For all species except Plutella xylostella, neonates were used. For P. xylostella, third instar larvae were used. The positive control used was 1000 ppm of Bacillus thuringiensis kurstaki.

[4] = tested on: Plutella xylostella (diamondback moth); experiment: Lepidopteran diet overlay bioassay
Protocol: as §2, §3

[5] = tested on: Ostrinia nubilalis (European corn borer); experiment: Lepidopteran diet overlay bioassay
Protocol: as §2, §3

[6] = tested on: Drosophila suzukii (spotted wing Drosophila); experiment: Drosophila suzukii diet incorporation assay; assay type: in vivo; conditions: 100, 500, 1000 μg/mL
Protocol: During the development of embodiments of the technology described herein, experiments were conducted to assess the activity of 3,3′-diindolylmethane against Drosophila suzukii. […] A1X=100 μg/mL; A5X=500 μg/mL; A10X=1000 μg/mL. Each concentration was tested with 10 vials containing 20 D. suzukii L2 larvae. “Dpi” indicates days post infestation (0 dpi is the day of egg-laying).

[7] = tested on: Anticarsia gemmatalis (velvetbean caterpillar); experiment: whole plant or invertebrate
Protocol: as §2

[8] = tested on: Spodoptera exigua (beet armyworm); experiment: whole plant or invertebrate
Protocol: as §2

[9] = tested on: Spodoptera frugiperda (fall armyworm); experiment: whole plant or invertebrate
Protocol: as §2, §3

[10] = tested on: Heliothis virescens (tobacco budworm); experiment: whole plant or invertebrate
Protocol: as §2, §3

[11] = tested on: Agrotis ipsilon (black cutworm); experiment: Lepidopteran diet overlay bioassay
Protocol: as §2

[12] = tested on: Helicoverpa zea (corn earworm); experiment: Lepidopteran diet overlay bioassay; conditions: 168 h, read-out: Mortalities (%) after 7 days of treatment (Abbott’s Correction), CEW
Protocol: as §2

[13] = tested on: Diatraea saccharalis (sugarcane borer); experiment: Lepidopteran diet overlay bioassay; conditions: 168 h, read-out: Mortalities (%) after 7 days of treatment (Abbott’s Correction), SCB
Protocol: as §2

[14] = tested on: Diatraea grandiosella (southwestern corn borer); experiment: Lepidopteran diet overlay bioassay; conditions: in Zea mays, 168 h, read-out: Mortalities (%) after 7 days of treatment (Abbott’s Correction), SWCB
Protocol: as §2

[15] = tested on: Chrysodeixis includens (soybean looper); experiment: Lepidopteran diet overlay bioassay; conditions: in Glycine max, 168 h, read-out: Mortalities (%) after 7 days of treatment (Abbott’s Correction), SBL
Protocol: as §2

[16] = tested on: Spodoptera eridania (southern armyworm); experiment: Lepidopteran diet overlay bioassay; conditions: 168 h, read-out: Mortalities (%) after 7 days of treatment (Abbott’s Correction), SAW
Protocol: as §2

[17] = tested on: Cydia pomonella (codling moth); experiment: Lepidopteran diet overlay bioassay; conditions: 168 h, read-out: Mortalities (%) after 7 days of treatment (Abbott’s Correction), CM
Protocol: as §2

[18] = read-out: LC50 (representative curve fit)
[19] = Plutella xylostella, 168 h, read-out: Mortalities (%) after 7 days of treatment (Abbott’s Correction), DBM
[20] = Plutella xylostella, 168 h, read-out: Mortality, Plutella xylostella (diamondback moth)
[21] = Ostrinia nubilalis, 168 h, read-out: Mortality, Ostrinia nubilalis (European corn borer)
[22] = Anticarsia gemmatalis, 168 h, read-out: Mortalities (%) after 7 days of treatment (Abbott’s Correction), VBC
[23] = Spodoptera exigua, 168 h, read-out: Mortalities (%) after 7 days of treatment (Abbott’s Correction), BAW
[24] = Spodoptera frugiperda, 168 h, read-out: Mortalities (%) after 7 days of treatment (Abbott’s Correction), FAW
[25] = Spodoptera frugiperda, 168 h, read-out: Mortality, Spodoptera frugiperda (fall armyworm)
[26] = Heliothis virescens, 168 h, read-out: Mortalities (%) after 7 days of treatment (Abbott’s Correction), TBW
[27] = Heliothis virescens, 168 h, read-out: Mortality, Heliothis virescens (tobacco budworm)
[28] = Agrotis ipsilon, 168 h, read-out: Mortalities (%) after 7 days of treatment (Abbott’s Correction), BCW

c1ccc2[nH]c(Cc3c[nH]c4ccccc34)cc2c1 [3-((1H-indol-2-yl)methyl)-1H-indole]
LC50 [1, 18]: 1.5 µg/mL (≈ 6.09 µM)
LC50 ([1]; read-out: mean LC50): 0.95 ± 0.75 µg/mL (≈ 3.86 µM)
LC50 [2, 18]: 5.8 µg/mL (≈ 23.5 µM)
LC50 ([2]; read-out: mean LC50): 6.3 ± 2.1 µg/mL (≈ 25.6 µM)

c1ccc2c(Cc3c[nH]c4ccccc34)c[nH]c2c1 [3,3′-diindolylmethane, 3,3′-Diindolylmethane]
Mortality, Trichoplusia ni (cabbage looper) ([3]; 39.06 μg/mL): 3.00%
Mortality, Trichoplusia ni (cabbage looper) ([3]; 156.25 μg/mL): 22.95%
Mortalities (%) after 7 days of treatment (Abbott’s Correction), CL ([3]; 156.25 μg/mL, diet overlay): 41.4%
Mortality, Trichoplusia ni (cabbage looper) ([3]; 625 μg/mL): 44.60%
Mortalities (%) after 7 days of treatment (Abbott’s Correction), CL ([3]; 625 μg/mL, diet overlay): 72.4%
Mortality, Trichoplusia ni (cabbage looper) ([3]; 2500 μg/mL): 93.25%
Mortalities (%) after 7 days of treatment (Abbott’s Correction), CL ([3]; 2500 μg/mL, diet overlay): 93.1%
activity against Trichoplusia ni ([3]; diet overlay): active; also recorded: dose-dependent activity
mortality at 156.25 µg/mL [4, 19]: 19.4%
mortality at 625 µg/mL [4, 19]: 6.5%
mortality at 2500 µg/mL [4, 19]: 19.4%
mortality at 9.77 µg/mL [4, 20]: 1.01%
mortality at 39.06 µg/mL [4, 20]: 1.07%
mortality at 156.25 µg/mL [4, 20]: 7.39%
mortality at 625 µg/mL [4, 20]: 15.7%
mortality at 2500 µg/mL [4, 20]: 43.4%
activity against P. xylostella ([4]; diet overlay): low or not observed
mortality at 9.77 µg/mL [5, 21]: 2.08%
mortality at 39.06 µg/mL [5, 21]: 2.08%
mortality at 156.25 µg/mL [5, 21]: 4.17%
mortality at 625 µg/mL [5, 21]: 6.25%
mortality at 2500 µg/mL [5, 21]: 4.17%
activity against O. nubilalis ([5]; diet overlay): low or not observed
LC50 [1, 18]: 7.5 µg/mL (≈ 30.4 µM)
egg-to-adult survival [6]: not affected
insecticidal activity against spotted wing Drosophila [6]: did not display insecticidal activity
eclosion rate ([6]; L2 larvae, one-way ANOVA): not affected
pupation rate ([6]; L2 larvae, one-way ANOVA): not affected
mortality at 156.25 µg/mL [7, 22]: 100%
mortality at 625 µg/mL [7, 22]: 70%
mortality at 2500 µg/mL [7, 22]: 96.7%
activity against Anticarsia gemmatalis ([7]; diet overlay): active; also recorded: dose-dependent activity
mortality at 156.25 µg/mL [8, 23]: 71.9%
mortality at 625 µg/mL [8, 23]: 93.8%
mortality at 2500 µg/mL [8, 23]: 71.9%
activity against Spodoptera exigua ([8]; diet overlay): active; also recorded: dose-dependent activity
mortality at 156.25 µg/mL [9, 24]: 40%
mortality at 625 µg/mL [9, 24]: 63.3%
mortality at 2500 µg/mL [9, 24]: 96.7%
mortality at 9.77 µg/mL [9, 25]: 4.1%
mortality at 39.06 µg/mL [9, 25]: 2.15%
mortality at 156.25 µg/mL [9, 25]: 79%
mortality at 625 µg/mL [9, 25]: 85.1%
mortality at 2500 µg/mL [9, 25]: 95.7%
activity against Spodoptera frugiperda ([9]; diet overlay): active; also recorded: dose-dependent activity
mortality at 156.25 µg/mL [10, 26]: 74.2%
mortality at 625 µg/mL [10, 26]: 74.2%
mortality at 2500 µg/mL [10, 26]: 87.1%
mortality at 9.77 µg/mL [10, 27]: 3.16%
mortality at 39.06 µg/mL [10, 27]: 40.9%
mortality at 156.25 µg/mL [10, 27]: 85.2%
mortality at 625 µg/mL [10, 27]: 93.8%
mortality at 2500 µg/mL [10, 27]: 83.3%
activity against tobacco budworm ([10]; diet overlay): active; also recorded: dose-dependent activity
mortality at 156.25 µg/mL [11, 28]: 0%
mortality at 625 µg/mL [11, 28]: 26.7%
mortality at 2500 µg/mL [11, 28]: 20%
activity against A. ipsilon ([11]; diet overlay): low or not observed
mortality at 156.25 µg/mL [12]: 40.6%
mortality at 625 µg/mL [12]: 50%
mortality at 2500 µg/mL [12]: 90.6%
mortality at 156.25 µg/mL [13]: 100%
mortality at 625 µg/mL [13]: 100%
mortality at 2500 µg/mL [13]: 100%
mortality at 156.25 µg/mL [14]: 46.7%
mortality at 625 µg/mL [14]: 90%
mortality at 2500 µg/mL [14]: 83.3%
mortality at 156.25 µg/mL [15]: 26.7%
mortality at 625 µg/mL [15]: 50%
mortality at 2500 µg/mL [15]: 80%
mortality at 156.25 µg/mL [16]: 22.6%
mortality at 625 µg/mL [16]: 100%
mortality at 2500 µg/mL [16]: 100%
mortality at 156.25 µg/mL [17]: 21.4%
mortality at 625 µg/mL [17]: 50%
mortality at 2500 µg/mL [17]: 39.3%
LC50 [2, 18]: 10.2 µg/mL (≈ 41.4 µM)
LC50 ([2]; read-out: mean LC50): 7.5 ± 3 µg/mL (≈ 30.4 µM)
activity against Aedes aegypti larvae ([2]; in vivo): exhibited larvicidal activity
